Measurements reported in patent US7291641B2, “Derivatives of heterocycles with 5 members, their preparation and their use as medicaments” (Societe de Conseils de Recherches et d'Applications …, priority 1999, dated 2007).

Row | Structure (SMILES) | melting point
1 | CN(CC#N)Cc1nc(-c2cc(C(C)(C)C)c(O)c(C(C)(C)C)c2)cs1 [Example 3, 2-[({4-[3,5-di(tert-butyl)-4-hydroxyphenyl]-1,3-thiazol-2-yl}methyl)(methyl)amino]acetonitrile] | 150 to 156 °C
2 | CN(Cc1ccccc1)Cc1nc(-c2cc(C(C)(C)C)c(O)c(C(C)(C)C)c2)cs1 [Example 7, 4-(2-{[benzyl(methyl)amino]methyl}-1,3-thiazol-4-yl)-2,6-di(tert-butyl)phenol] | 165 to 170 °C
3 | CCCCOC(=O)NCCc1nc(-c2ccc(-c3ccccc3)cc2)c[nH]1 [Example 31, butyl 2-(4-[1,1′-biphenyl]-4-yl-1H-imidazol-2-yl)ethylcarbamate] | 136.7 °C
4 | CCCCC(=O)NCCc1nc(-c2ccc(-c3ccccc3)cc2)c[nH]1 [Example 32, N-[2-(4-[1,1′-biphenyl]-4-yl-1H-imidazol-2-yl)ethyl]pentanamide] | 166 to 167 °C
5 | CCCCS(=O)(=O)NCCc1nc(-c2ccc(-c3ccccc3)cc2)c[nH]1 [Example 33, N-[2-(4-[1,1′-biphenyl]-4-yl-1H-imidazol-2-yl)ethyl]-1-butanesulphonamide] | 168.5 °C
6 | CCCCNC(=O)NCCc1nc(-c2ccc(-c3ccccc3)cc2)c[nH]1 [Example 34] | 178 °C
7 | Fc1ccc(-c2c[nH]c([C@@H](NC3CCC3)C3CCCCC3)n2)cc1 [Example 35, N-{(S)-cyclohexyl[4-(4-fluorophenyl)-1H-imidazol-2-yl]methyl}cyclobutanamine] | 170 to 172 °C
8 | CCCCCCC(NC1CCCCC1)c1nc(C2CCCCC2)c[nH]1 (centres unmarked) [Example 36, N-[1-(4-cyclohexyl-1H-imidazol-2-yl)heptyl]cyclohexanamine] | 172 to 174 °C
9 | CC(C)CCCC(NC1CCCCC1)c1nc(-c2cccc(Br)c2)c[nH]1 (centres unmarked) [Example 37, N-{1-[4-(3-bromophenyl)-1H-imidazol-2-yl]-5-methylhexyl}-N-cyclohexylamine] | 236 to 238 °C
10 | CCCCCCC(NC1CCCCC1)c1nc(-c2ccc(F)cc2)c[nH]1 (centres unmarked) [Example 38, N-{1-[4-(4-fluorophenyl)-1H-imidazol-2-yl]heptyl}cyclohexanamine] | 190 to 192 °C
11 | CC(C)(C)c1cn(Cc2ccccc2)c([C@@H](Cc2c[nH]c3ccccc23)NCc2ccccc2)n1 [Example 39, (1R)-N-benzyl-1-(1-benzyl-4-tert-butyl-1H-imidazol-2-yl)-2-(1H-indol-3-yl)ethanamine] | 60 to 62 °C

Results, then the compound that gave them:

Row | melting point | Structure (SMILES)
12 | 120 to 122 °C | CCCCCCN(Cc1ccccc1)Cc1nc(-c2ccc(-c3ccccc3)cc2)c[nH]1 [Example 41, N-benzyl-N-[(4-[1,1′-biphenyl]-4-yl-1H-imidazol-2-yl)methyl]-1-hexanamine]
13 | 106 to 108 °C | CN(Cc1ccccc1)Cc1nc(-c2ccc(-c3ccccc3)cc2)c[nH]1 [Example 42, N-benzyl(4-[1,1′-biphenyl]-4-yl-1H-imidazol-2-yl)-N-methylmethanamine]
14 | 138 to 140 °C | c1ccc(-c2c[nH]c([C@@H](Cc3c[nH]c4ccccc34)Nc3ncccn3)n2)cc1 [Example 44, N-[(1R)-2-(1H-indol-3-yl)-1-(4-phenyl-1H-imidazol-2-yl)ethyl]-2-pyrimidinamine]
15 | 78 to 80 °C | CN(C)Cc1nc(-c2ccccc2)cn1Cc1ccccc1 [Example 45, (1-benzyl-4-phenyl-1H-imidazol-2-yl)-N,N-dimethylmethanamine]
16 | 110 to 112 °C | CN(Cc1ccccc1)[C@H](Cc1c[nH]c2ccccc12)c1nc(-c2ccccc2)c[nH]1 [Example 46, (1R)-N-benzyl-2-(1H-indol-3-yl)-N-methyl-1-(4-phenyl-1H-imidazol-2-yl)ethanamine]
17 | 228 to 230 °C | c1ccc(CN[C@H](Cc2ccccc2)c2nc(-c3ccccc3)c[nH]2)cc1 [Example 48, (1R)-N-benzyl-2-phenyl-1-(4-phenyl-1H-imidazol-2-yl)ethanamine]
